Laboratory results taken from patent US10253002B2, “Compounds and methods of treating infections” (Neoculi Pty Ltd., priority 2013, dated 2019).
≈ marks a conversion by molar mass, not a printed value. Where “and” joins values, the source holds several entries; their conditions need not be identical. Identical values can stand only once. Like-named read-outs stand apart in the source and are kept apart here. Marks after values point to notes of the source that are not given here.

What was measured:
[1] = tested on: MRSA; assay: Broth microdilution MIC, Example 7 (NCL812 and analogues); assay type: cell-based, Staphylococcus aureus; conditions: for activity against MRSA among analogues: MIC testing, two MRSA strains; for MIC: Staphylococcus aureus; for MRSA / MIC: MRSA
Method in brief: (§1)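 CLSI broth microdilution against two MRSA and two VRE strains, tested in duplicate with a third run if results differed by more than one two-fold dilution.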

[2] = tested on: VRE; assay: as above; assay type: cell-based, Enterococcus spp.; conditions: for activity against VRE among analogues: MIC testing, two VRE strains; for MIC: Enterococcus; for VRE / MIC: VRE
Method in brief: as §1

[3] = tested on: Escherichia coli; assay: as above; assay type: cell-based; conditions: 24 hours; for MIC: Escherichia coli, read-out: MIC (μg/ml) at 24 hours
[4] = tested on: Pseudomonas aeruginosa; assay: as above; assay type: cell-based; conditions: 24 hours; for MIC: Pseudomonas aeruginosa, 24 h, read-out: MIC (μg/ml) at 24 hours, P. aeruginosa
[5] = Bioassay ranking of the analogues tested; conditions: M + R (MRSA and VRE combined)
[6] = isolate MRSA 1, 24 hours, 1st and 2nd replicate rows
[7] = isolate MRSA 2, 24 hours, 1st and 2nd replicate rows
[8] = isolate VRE 1, 24 hours, 1st and 2nd replicate rows
[9] = isolate VRE 2, 24 hours, 1st and 2nd replicate rows
[10] = MRSA 1, 24 hours, duplicate lines per compound
[11] = MRSA 2, 24 hours, duplicate lines per compound
[12] = VRE 1, 24 hours, duplicate lines per compound
[13] = VRE 2, 24 hours, duplicate lines per compound
[14] = E. coli, duplicate lines per compound
[15] = P. aeruginosa, duplicate lines per compound
[16] = 24 h, read-out: MIC (μg/ml) at 24 hours, MRSA 1, MRSA 1, 24 hours, duplicate lines per compound
[17] = 24 h, read-out: MIC (μg/ml) at 24 hours, MRSA 2, MRSA 2, 24 hours, duplicate lines per compound
[18] = bioassay ranking, read-out: MRSA
[19] = 24 h, read-out: MIC (μg/ml) at 24 hours, VRE 1, VRE 1, 24 hours, duplicate lines per compound
[20] = 24 h, read-out: MIC (μg/ml) at 24 hours, VRE 2, VRE 2, 24 hours, duplicate lines per compound
[21] = bioassay ranking, read-out: VRE

| MIC (μg/ml) at 24 hours, MRSA 1 [1, 6] | MIC (μg/ml) at 24 hours, MRSA 2 [1, 7] | MIC (μg/ml) at 24 hours, VRE 1 [2, 8] | MIC (μg/ml) at 24 hours, VRE 2 [2, 9] | MIC (μg/ml) at 24 hours, E. coli ([3]; 1st and 2nd replicate rows) [µg/mL] | MIC (μg/ml) at 24 hours, P. aeruginosa ([4]; 1st and 2nd replicate rows) | SMILES | activity against MRSA among analogues [1] | MRSA ([1]; bioassay ranking) [µg/mL] | activity against VRE among analogues [2] | VRE ([2]; bioassay ranking) [µg/mL] | M + R [5] [µg/mL] | also measured |
| --- | --- | --- | --- | --- | --- | --- | --- | --- | --- | --- | --- | --- |
| 16 µg/mL | 16 µg/mL | 8 µg/mL | 8 µg/mL | >128 | >128 µg/mL | Cl.N=C(N/N=C/c1ccc(F)cc1)N/N=C/c1ccc(F)cc1 [NCL021] | greatest activity | 16 | greatest activity | 8 | 12 | – |
| 16 µg/mL | 16 µg/mL | 32 µg/mL | 16 µg/mL | >128 | >128 µg/mL | Cl.N=C(NN=Cc1cccc(F)c1)NN=Cc1cccc(F)c1 [NCL023] | greatest activity | 16 | greatest activity | 24 | 20 | – |
| 32 µg/mL | 32 µg/mL | 32 µg/mL | 32 µg/mL | >128 | >128 µg/mL | COc1cccc(C=NNC(=N)NN=Cc2cccc(OC)c2)c1.Cl [NCL029] | greatest activity | 32 | greatest activity | 32 | 32 | – |
| 16 µg/mL | 16 µg/mL | 8 µg/mL and 4 µg/mL | 4 µg/mL | >128 | >128 µg/mL | Cl.N=C(N/N=C/c1ccc(C(F)(F)F)cc1)N/N=C/c1ccc(C(F)(F)F)cc1 [NCL035] | greatest activity | 16 | greatest activity | 5 | 10.5 | – |
| 8** μg/ml | 8** μg/ml | 8** μg/ml and 16** μg/ml | 8** μg/ml | >128 | >128 µg/mL | Cc1ccc(/C=N/NC(=N)N/N=C/c2ccc(C)cc2)cc1.Cl [NCL038] | greatest activity | 8 | greatest activity | 10 | 9 | – |
| 32 µg/mL and 64 µg/mL | 32 µg/mL | 32 µg/mL | 8 µg/mL | >128 | >128 µg/mL and >188 µg/mL | Cc1ccccc1C=NNC(=N)NN=Cc1ccccc1C.Cl [NCL039] | greatest activity | – | greatest activity | 20 | 30 | – |
| 8 µg/mL | 8 µg/mL | 8 µg/mL | 8 µg/mL | >128 | >128 µg/mL | Cc1cccc(C=NNC(=N)NN=Cc2cccc(C)c2)c1.Cl [NCL040] | greatest activity | 8 | greatest activity | 8 | 8 | – |
| 4 µg/mL and 2 µg/mL | 2 µg/mL and 4 µg/mL | 4 µg/mL | 4 µg/mL | >128 | >128 µg/mL | Cl.N=C(N/N=C/c1cccc(Cl)c1)N/N=C/c1cccc(Cl)c1 [NCL054] | greatest activity | 3 | greatest activity | 4 | 3.5 | – |
| – | – | – | – | – | – | Cl.N=C(N/N=C/c1ccc(Cl)cc1)N/N=C/c1ccc(Cl)cc1Cl [NCL074] | greatest activity | 16 | greatest activity | 3.75 | 9.875 | MIC (μg/ml) at 24 hours, MRSA 1 [1, 10]: 16 µg/mL; MIC (μg/ml) at 24 hours, MRSA 2 [1, 11]: 16 µg/mL; MIC (μg/ml) at 24 hours, VRE 1 [2, 12]: 2 µg/mL and 1 µg/mL; MIC (μg/ml) at 24 hours, VRE 2 [2, 13]: 8 µg/mL and 4 µg/mL; MIC (μg/ml) at 24 hours, E. coli [3, 14]: >128 µg/mL; MIC (μg/ml) at 24 hours, P. aeruginosa [4, 15]: >128 µg/mL |
| – | – | – | – | – | – | Cl.N=C(N/N=C/c1ccc(Cl)cc1)N/N=C/c1ccc(C(F)(F)F)cc1F [NCL078] | greatest activity | – | greatest activity | – | 5.5 | MIC (μg/ml) at 24 hours, MRSA 2 [1, 11]: 8 µg/mL; MIC [1, 16]: 4 µg/mL; MIC [1, 17]: 16 µg/mL; MIC [1, 18]: 8 µg/mL; MIC [2, 19]: 4 µg/mL; MIC [2, 20]: 4 µg/mL; MIC [2, 21]: 3 µg/mL; MIC (μg/ml) at 24 hours, VRE 1 [2, 12]: 2 µg/mL; MIC (μg/ml) at 24 hours, VRE 2 [2, 13]: 2 µg/mL; MIC [3, 14]: > 128 µg/mL; MIC ([4]; duplicate lines per compound): > 128 µg/mL |
| – | – | – | – | – | – | Cl.N=C(N/N=C/c1ccc(F)cc1)N/N=C/c1ccc(Cl)cc1 [NCL079] | greatest activity | – | greatest activity | – | 4 | MIC (μg/ml) at 24 hours, MRSA 2 [1, 11]: 8 µg/mL; MIC [1, 16]: 4 µg/mL; MIC [1, 17]: 4 µg/mL; MIC [1, 18]: 5 µg/mL; MIC [2, 19]: 2 µg/mL; MIC [2, 20]: 4 µg/mL; MIC [2, 21]: 3 µg/mL; MIC [3, 14]: > 128 µg/mL; MIC ([4]; duplicate lines per compound): > 128 µg/mL |
| – | – | – | – | – | – | C/C(=N\NC(=N)N/N=C/c1ccc(Cl)cc1)c1ccc(C(F)(F)F)cc1.Cl [NCL080] | greatest activity | – | greatest activity | – | 4 | MIC (μg/ml) at 24 hours, MRSA 2 [1, 11]: 8 µg/mL; MIC [1, 16]: 4 µg/mL; MIC [1, 17]: 4 µg/mL; MIC [1, 18]: 5 µg/mL; MIC [2, 19]: 2 µg/mL; MIC [2, 20]: 4 µg/mL; MIC [2, 21]: 3 µg/mL; MIC [3, 14]: > 128 µg/mL; MIC ([4]; duplicate lines per compound): > 128 µg/mL |
| – | – | – | – | – | – | C/C(=N\NC(=N)N/N=C/c1ccc(Cl)cc1)c1ccc(Cl)cc1.Cl [NCL081] | greatest activity | 5 | greatest activity | 2.5 | 3.75 | MIC (μg/ml) at 24 hours, MRSA 1 [1, 10]: 4 µg/mL; MIC (μg/ml) at 24 hours, MRSA 2 [1, 11]: 8 µg/mL and 4 µg/mL; MIC (μg/ml) at 24 hours, VRE 1 [2, 12]: 1 µg/mL; MIC (μg/ml) at 24 hours, VRE 2 [2, 13]: 4 µg/mL; MIC (μg/ml) at 24 hours, E. coli [3, 14]: >128 µg/mL; MIC (μg/ml) at 24 hours, P. aeruginosa [4, 15]: >128 µg/mL |
| – | – | – | – | – | – | CC(=NNC(=N)NN=C(C)c1ccc(Cl)cc1O)c1ccc(Cl)cc1O.Cl [NCL173] | greatest activity | 16 | greatest activity | 18 | 17 | – |
| – | – | – | – | – | – | Cl.N=C(NN=Cc1ccc(Cl)cc1O)NN=Cc1ccc(Cl)cc1O [NCL174] | greatest activity | 32 | greatest activity | 18 | 25 | – |
| – | – | – | – | – | – | Cl.N=C(NN=C(CO)c1ccc(Cl)cc1)NN=C(CO)c1ccc(Cl)cc1 [NCL177] | greatest activity | 8 | greatest activity | 6 | 7 | – |
| – | – | – | – | – | – | Nc1nc(N/N=C/c2ccc(Cl)cc2)cc(N/N=C/c2ccc(Cl)cc2)n1 [NCL179, 4,6-bis(2-((E)-4-chlorobenzylidene)hydrazinyl)pyrimidin-2-amine] | greatest activity | – | greatest activity | – | 3 | MIC [1, 18]: 2 µg/mL (≈ 5 µM); MIC [2, 21]: 4 µg/mL (≈ 9.99 µM) |
| – | – | – | – | – | – | Cl.[H]/N=C(/N)NN=C(CNN)c1ccc(Cl)cc1 [NCL190] | greatest activity | 24 | greatest activity | 32 | 28 | – |
